Assay results reported in patent US20160355530A1, “HEPATITIS C INHIBITORS AND USES THEREOF” (AbbVie Inc., priority 2010, published 2016).
Read-outs that look alike come from different tables or passages of the source.

Columns and labels:
[1] = system: HCV 1b-BB7 subgenomic replicon; test: microbe, parasite or virus in culture; format: cell-based, HCV genotype 1b; details: Hepatitis C virus, stable replicon
[2] = target: T1, HCV NS5B polymerase 1b BK strain (Hepatitis C virus genotype 1b, UniProt P26663); test: HCV NS5B polymerase enzymatic inhibition assay, strain 1b BK; format: biochemical; details: enzyme, strain 1b BK; read-out: HCV Polymerase Strain 1b BK IC50
T1 construct: six-histidine tag; made in house; host or cells: E. coli
Summary of the method: (§1)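 E. coli-expressed NS5B (residues 1-570, His-tagged) transcribed a 2.1 kb HCV 1b negative-strand 3′-end RNA template (5 nM) with 20 μM CTP, 20 μM ATP and 0.284 μM [3H]UTP for 3 h at 30° C. Spermine-precipitated RNA was filter-captured and counted by scintillation; IC50 from nonlinear regression.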

[3] = target: T2, HCV NS5B polymerase 1a-H77 (Hepatitis C virus genotype 1a, UniProt P27958); test: biochemical; design: species or system HCV genotype 1a; details: enzyme, strain 1a H77; read-out: HCV Polymerase Strain 1a H77 IC50
T2 construct: six-histidine tag; made in house; host or cells: E. coli
Summary of the method: as §1

[4] = system: HCV NS5B polymerase 1a-H77-C316Y; test: biochemical; design: species or system HCV genotype 1a; details: ratio of enzyme IC50s, 1a H77-C316Y / 1a H77
Summary of the method: as §1

[5] = target: T3, HCV NS5B polymerase 1a-H77-C316Y (Hepatitis C virus genotype 1a, UniProt P27958, C2736Y); test: biochemical; design: species or system HCV genotype 1a
T3 construct: six-histidine tag; made in house; host or cells: E. coli
Summary of the method: as §1

[6] = system: HCV 1a-H77 subgenomic replicon; test: microbe, parasite or virus in culture; format: cell-based, HCV genotype 1a; details: Hepatitis C virus, stable replicon
[7] = strain 1b BB7, 5% FBS + 40% human plasma, read-out: 1b BB7 5% FBS + 40% Human Plasma EC50
[8] = strain 1b BB7, 5% FBS, no human plasma, read-out: 1b BB7 5% FBS EC50
[9] = strain 1b BB7, 5% FBS, read-out: 1b BB7 5% FBS EC50
[10] = 5% FBS, absence of human plasma, read-out: Stable Replicon 1a H77 5% FBS EC50
[11] = strain 1a H77, 5% FBS + 40% human plasma, read-out: 1a H77 5% FBS + 40% Human Plasma EC50
[12] = strain 1a H77, 5% FBS, no human plasma, read-out: 1a H77 5% FBS EC50
[13] = strain 1a H77, 5% FBS, read-out: 1a H77 5% FBS EC50

T2 sequence (P27958 2421-2990): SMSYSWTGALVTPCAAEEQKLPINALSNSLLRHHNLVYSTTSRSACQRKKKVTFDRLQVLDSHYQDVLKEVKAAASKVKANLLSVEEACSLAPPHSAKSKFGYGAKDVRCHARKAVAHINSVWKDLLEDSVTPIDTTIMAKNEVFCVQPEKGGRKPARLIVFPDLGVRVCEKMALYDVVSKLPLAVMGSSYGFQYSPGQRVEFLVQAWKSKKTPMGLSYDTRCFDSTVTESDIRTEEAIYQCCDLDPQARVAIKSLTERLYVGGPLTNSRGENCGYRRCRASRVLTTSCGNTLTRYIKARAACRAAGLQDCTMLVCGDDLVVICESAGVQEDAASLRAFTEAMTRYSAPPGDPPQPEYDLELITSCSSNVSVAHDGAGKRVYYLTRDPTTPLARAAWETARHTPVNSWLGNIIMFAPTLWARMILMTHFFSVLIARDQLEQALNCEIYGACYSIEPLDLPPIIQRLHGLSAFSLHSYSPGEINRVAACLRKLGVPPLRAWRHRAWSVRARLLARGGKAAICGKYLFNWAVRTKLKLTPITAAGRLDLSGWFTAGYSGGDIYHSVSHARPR
T1 sequence (P26663 2420-2989): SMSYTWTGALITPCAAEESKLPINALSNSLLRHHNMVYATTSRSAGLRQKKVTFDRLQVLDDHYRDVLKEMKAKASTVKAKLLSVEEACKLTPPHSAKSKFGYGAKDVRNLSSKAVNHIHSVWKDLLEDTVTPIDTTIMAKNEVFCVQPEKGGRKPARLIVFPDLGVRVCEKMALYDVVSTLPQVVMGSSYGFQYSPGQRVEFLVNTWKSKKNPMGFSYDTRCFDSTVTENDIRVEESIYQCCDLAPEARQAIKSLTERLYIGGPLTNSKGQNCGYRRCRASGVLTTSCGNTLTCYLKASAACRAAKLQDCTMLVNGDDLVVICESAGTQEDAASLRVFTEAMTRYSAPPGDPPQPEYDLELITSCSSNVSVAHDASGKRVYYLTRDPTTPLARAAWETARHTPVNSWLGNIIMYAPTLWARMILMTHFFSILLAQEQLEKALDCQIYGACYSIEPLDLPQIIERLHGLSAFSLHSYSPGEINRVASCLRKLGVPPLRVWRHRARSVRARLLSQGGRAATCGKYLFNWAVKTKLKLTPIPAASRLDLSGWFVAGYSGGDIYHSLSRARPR
T3 sequence (P27958 2421-2990 C2736Y): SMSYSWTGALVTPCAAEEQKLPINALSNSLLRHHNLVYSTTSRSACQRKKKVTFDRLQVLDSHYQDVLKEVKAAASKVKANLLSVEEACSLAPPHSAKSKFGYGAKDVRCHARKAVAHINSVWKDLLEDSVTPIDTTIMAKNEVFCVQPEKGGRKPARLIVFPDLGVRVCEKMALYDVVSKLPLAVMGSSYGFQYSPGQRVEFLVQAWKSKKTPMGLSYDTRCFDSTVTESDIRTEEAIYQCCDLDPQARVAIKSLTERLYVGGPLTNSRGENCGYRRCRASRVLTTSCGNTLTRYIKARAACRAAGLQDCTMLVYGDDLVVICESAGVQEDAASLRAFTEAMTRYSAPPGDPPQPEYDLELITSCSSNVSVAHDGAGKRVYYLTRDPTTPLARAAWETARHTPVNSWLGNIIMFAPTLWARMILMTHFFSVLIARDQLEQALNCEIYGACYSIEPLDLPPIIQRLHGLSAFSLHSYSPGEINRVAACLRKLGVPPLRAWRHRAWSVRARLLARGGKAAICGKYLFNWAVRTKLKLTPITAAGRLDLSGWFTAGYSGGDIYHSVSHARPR

Structure (SMILES)	EC50 [1, 7]	EC50 [1, 8]	EC50 [1, 9]	IC50 [2]	IC50 [3]	C316Y/1a Fold Resistance [4]	IC50 [5]	EC50 [6, 10]	EC50 [6, 11]	EC50 [6, 12]	EC50 [6, 13]
CS(=O)(=O)N(CC1CCCCC1)c1cc2oc(-c3ccc(F)cc3)c(-c3ncc[nH]3)c2cc1C1CC1 [Example 45, N-(cyclohexylmethyl)-N-[5-cyclopropyl-2-(4-fluorophenyl)-3-(1H-imidazol-2-yl)-1-benzofuran-6-yl]methanesulfonamide]	4410 nM	180 nM	180 nM	110 nM	7.5 nM	39 fold	295 nM	87.4 nM	3010 nM	87.4 nM	87.4 nM
COCCN(c1cc2oc(-c3ccc(F)cc3)c(-c3ncc[nH]3)c2cc1C1CC1)S(C)(=O)=O [Example 47, N-[5-cyclopropyl-2-(4-fluorophenyl)-3-(1H-imidazol-2-yl)-1-benzofuran-6-yl]-N-(2-methoxyethyl)methanesulfonamide]	148 nM	25.6 nM	25.6 nM	41 nM	7.9 nM	126 fold	1000 nM	81.7 nM	771 nM	81.7 nM	81.7 nM
CS(=O)(=O)N(CC1CCNC1)c1cc2oc(-c3ccc(F)cc3)c(-c3ncc[nH]3)c2cc1C1CC1 (stereo not shown) [Example 51, N-[5-cyclopropyl-2-(4-fluorophenyl)-3-(1H-imidazol-2-yl)-1-benzofuran-6-yl]-N-(pyrrolidin-3-ylmethyl)methanesulfonamide]	835 nM	194 nM	194 nM	74 nM	9.4 nM	219 fold	2050 nM	1000 nM	4590 nM	1000 nM	1000 nM
CC(C)N(c1cc2oc(-c3ccc(F)cc3)c(-c3ncc[nH]3)c2cc1C1CC1)S(C)(=O)=O [Example 52, N-[5-cyclopropyl-2-(4-fluorophenyl)-3-(1H-imidazol-2-yl)-1-benzofuran-6-yl]-N-isopropylmethanesulfonamide]	661 nM	114 nM	114 nM	132 nM	7.7 nM	286 fold	2220 nM	130 nM	1410 nM	130 nM	130 nM
COC(=O)CCCN(c1cc2oc(-c3ccc(F)cc3)c(-c3ncc[nH]3)c2cc1C1CC1)S(C)(=O)=O [Example 68, methyl 4-{[5-cyclopropyl-2-(4-fluorophenyl)-3-(1H-imidazol-2-yl)-1-benzofuran-6-yl](methylsulfonyl)amino}butanoate]	496 nM	62 nM	62 nM	20 nM	5.9 nM	17 fold	103 nM	57 nM	1210 nM	57 nM	57 nM
CS(=O)(=O)N(CCC1CCCCC1)c1cc2oc(-c3ccc(F)cc3)c(-c3ncc[nH]3)c2cc1C1CC1 [Example 72, N-(2-cyclohexylethyl)-N-[5-cyclopropyl-2-(4-fluorophenyl)-3-(1H-imidazol-2-yl)-1-benzofuran-6-yl]methanesulfonamide]	2210 nM	61 nM	61 nM	46 nM	14.3 nM	11 fold	164 nM	73.7 nM	3390 nM	73.7 nM	73.7 nM
CS(=O)(=O)N(CC1CCCO1)c1cc2oc(-c3ccc(F)cc3)c(-c3ncc[nH]3)c2cc1C1CC1 (stereo not shown) [Example 75, N-[5-cyclopropyl-2-(4-fluorophenyl)-3-(1H-imidazol-2-yl)-1-benzofuran-6-yl]-N-(tetrahydrofuran-2-ylmethyl)methanesulfonamide]	1160 nM	45 nM	45 nM	60 nM	6.5 nM	247 fold	1600 nM	69.6 nM	1080 nM	69.6 nM	69.6 nM
CC(C)=CCCN(c1cc2oc(-c3ccc(F)cc3)c(-c3ncc[nH]3)c2cc1C1CC1)S(C)(=O)=O [Example 76, N-[5-cyclopropyl-2-(4-fluorophenyl)-3-(1H-imidazol-2-yl)-1-benzofuran-6-yl]-N-(4-methylpent-3-en-1-yl)methanesulfonamide]	661 nM	26.9 nM	26.9 nM	23 nM	5.9 nM	22 fold	131 nM	48.5 nM	3960 nM	48.5 nM	48.5 nM
Cc1ncsc1CCN(c1cc2oc(-c3ccc(F)cc3)c(-c3ncc[nH]3)c2cc1C1CC1)S(C)(=O)=O [Example 78, N-[5-cyclopropyl-2-(4-fluorophenyl)-3-(1H-imidazol-2-yl)-1-benzofuran-6-yl]-N-[2-(4-methyl-1,3-thiazol-5-yl)ethyl]methanesulfonamide]	514 nM	15.7 nM	15.7 nM	13 nM	4 nM	27 fold	107 nM	38.5 nM	1060 nM	38.5 nM	38.5 nM
CS(=O)(=O)N(CCN1CCCC1)c1cc2oc(-c3ccc(F)cc3)c(-c3ncc[nH]3)c2cc1C1CC1 [Example 81, N-[5-cyclopropyl-2-(4-fluorophenyl)-3-(1H-imidazol-2-yl)-1-benzofuran-6-yl]-N-[2-(pyrrolidin-1-yl)ethyl]methanesulfonamide]	129 nM	36.9 nM	36.9 nM	137 nM	31.8 nM	151 fold	4800 nM	205 nM	732 nM	205 nM	205 nM
CS(=O)(=O)N(CCCC(=O)O)c1cc2oc(-c3ccc(F)cc3)c(-c3ncc[nH]3)c2cc1C1CC1 [Example 89, 4-{[5-cyclopropyl-2-(4-fluorophenyl)-3-(1H-imidazol-2-yl)-1-benzofuran-6-yl](methylsulfonyl)amino}butanoic acid]	376 nM	91.5 nM	91.5 nM	65 nM	5 nM	15 fold	77 nM	269 nM	2440 nM	269 nM	269 nM
CS(=O)(=O)N(CC(O)CO)c1cc2oc(-c3ccc(F)cc3)c(-c3ncc[nH]3)c2cc1C1CC1 (stereo not shown) [Example 93, N-[5-cyclopropyl-2-(4-fluorophenyl)-3-(1H-imidazol-2-yl)-1-benzofuran-6-yl]-N-(2,3-dihydroxypropyl)methanesulfonamide]	880 nM	63.4 nM	63.4 nM	117 nM	5 nM	320 fold	1600 nM	83.2 nM	915 nM	83.2 nM	83.2 nM
CC(C)(O)C(O)CN(c1cc2oc(-c3ccc(F)cc3)c(-c3ncc[nH]3)c2cc1C1CC1)S(C)(=O)=O (stereo not shown) [Example 94, N-[5-cyclopropyl-2-(4-fluorophenyl)-3-(1H-imidazol-2-yl)-1-benzofuran-6-yl]-N-(2,3-dihydroxy-3-methylbutyl)methanesulfonamide]	360 nM	76.3 nM	76.3 nM	28 nM	9.4 nM	107 fold	1000 nM	60.2 nM	599 nM	60.2 nM	60.2 nM
CC(O)CN(c1cc2oc(-c3ccc(F)cc3)c(-c3ncc[nH]3)c2cc1C1CC1)S(C)(=O)=O (stereo not shown) [Example 98, N-[5-cyclopropyl-2-(4-fluorophenyl)-3-(1H-imidazol-2-yl)-1-benzofuran-6-yl]-N-(2-hydroxypropyl)methanesulfonamide]	2060 nM	136 nM	136 nM	240 nM	24.5 nM	131 fold	3200 nM	158 nM	1630 nM	158 nM	158 nM
